# Experimental data published in US20250332173A1, “COMPOUNDS AND METHODS FOR MODULATING NUCLEIC ACID SPLICING” (REMIX THERAPEUTICS INC., priority 2021, published 2025).
# Read-outs that look alike come from different tables or passages of the source.
# Key:
# Format in all cases: cell-based, human
# [1] = system: MYB mRNA; test: RT-qPCR splicing assay, MYB canonical junction (CJ) and alternative junction (AJ) mRNA; details: Homo sapiens; for AC50: increase in MYB alternative junction (AJ) mRNA, read-out: MYB AJ AC50
# Outline: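 A673 or K562 cells were treated for 24 h at 37 °C with an 11-point 3-fold compound dilution series (top final concentration 10 uM, DMSO ≤0.25%). After lysis, one-step TaqMan RT-qPCR quantified junction transcripts, normalized to PPIA for A673 or to GAPDH/GUSB for K562.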
# [2] = system: Target C; test: RT-qPCR splicing assay panel, Target C canonical junction (CJ) mRNA; details: Homo sapiens
# Outline: (§1)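 A673 or K562 cells were treated for 24 h at 37 °C with compound in 11-point 3-fold dilution (top 10 uM final, DMSO ≤0.25%). Lysates then went to one-step RT-qPCR measuring canonical-junction mRNA, normalized to GAPDH, GUSB or PPIA.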
# [3] = system: SMN2 mRNA; test: RT-qPCR splicing assay, SMN2 canonical junction (CJ) mRNA; details: Homo sapiens
# Outline: as §1
# [4] = system: Target C; test: HiBiT protein abundance assay, Target C (Promega Nano-Glo HiBiT Lytic Detection System, knock-in K562 cell line); details: Homo sapiens, K562, 24 h, HiBiT K562 cell line, 24 hours, top dose 10 μM; read-out: Effect on protein abundance, Target C (IC50 category)
# Outline: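 HiBiT knock-in K562 cells (10,000/well) were treated for 24 h at 37 °C with a 10-point 3-fold dilution series, top final concentration 10 μM, DMSO ≤0.25%. Lytic HiBiT luminescence was read, normalized to unmodified K562 and DMSO-treated controls, and IC50 was interpolated from a four-parameter logistic fit.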
# [5] = canonical junction qPCR panel, Table 5, read-out: MYB (decrease in CJ mRNA levels, IC50)
# [6] = decrease in MYB canonical junction (CJ) mRNA, RT-qPCR, read-out: MYB CJ IC50
# [7] = canonical junction qPCR panel, Table 5, read-out: Target C (decrease in CJ mRNA levels, IC50)
# [8] = canonical junction qPCR panel, Table 5, read-out: SMN2 (decrease in CJ mRNA levels, IC50)
# [9] = Table 5 panel, canonical junction qPCR, compound concentration having 50% response in CJ decrease, read-out: MYB IC50 (decrease in CJ mRNA levels)
# [10] = Table 5 panel, canonical junction qPCR, compound concentration having 50% response in CJ decrease, read-out: Target C IC50 (decrease in CJ mRNA levels)
# [11] = Table 5 panel, canonical junction qPCR, compound concentration having 50% response in CJ decrease, read-out: SMN2 IC50 (decrease in CJ mRNA levels)
Structure (SMILES),"IC50 [1, 5] [nM]","IC50 [1, 6] [nM]",AC50 ([1]; RT-qPCR) [nM],"IC50 [2, 7] [nM]","IC50 [3, 8] [nM]",IC50 [4] [nM],"IC50 [1, 9] [nM]","IC50 [2, 10] [nM]","IC50 [3, 11] [nM]"
"Cn1cc2cc(-c3ccc4c(=O)n([C@H]5CCNC5)ccc4n3)c(O)c(F)c2n1 [Compound 1451, 2-(7-fluoro-6-hydroxy-2-methyl-indazol-5-yl)-6-[(3S)-pyrrolidin-3-yl]-1,6-naphthyridin-5-one]",< 100,100 to 1000,< 100,100 to 1000,< 100,100 to 1000,,,
Cn1cc2nc(-c3ccc4c(=O)n(C5CCNCC5)ccc4n3)c(O)cc2n1 [Compound 1296],< 100,< 100,< 100,100 to 1000,< 100,100 to 1000,,,
Cn1cc2cc(-c3ncc4c(=O)n(C5CCNC5)ccc4n3)c(O)c(F)c2n1 (stereo not drawn) [Compound 1223],,100 to 1000,100 to 1000,,,1000 to 10000,100 to 1000,1000 to 10000,< 100
Cc1cn2cc(-c3ncc4c(=O)n(C5CCNCC5)ccc4n3)cc(C#N)c2n1 [Compound 1301],100 to 1000,100 to 1000,100 to 1000,1000 to 10000,< 100,100 to 1000,,,
Cn1cc2cc(-c3ccc4c(=O)n(C5CCNCC5)ccc4n3)cc(F)c2n1 [Compound 1231],100 to 1000,100 to 1000,100 to 1000,100 to 1000,< 100,100 to 1000,,,
"Cc1c(O)c(-c2ncc3c(=O)n(C4CCC(N)CC4)ccc3n2)cc2cn(C)nc12 (stereo not drawn) [Compound 1300, 6-((1s,4s)-4-aminocyclohexyl)-2-(6-hydroxy-2,7-dimethyl-2H-indazol-5-yl)pyrido[4,3-d]pyrimidin-5(6H)-one]",100 to 1000,100 to 1000,100 to 1000,1000 to 10000,< 100,1000 to 10000,,,
"Cc1c(O)c(-c2ccc3c(=O)n([C@@H]4CCNC4)ccc3n2)cc2cn(C)nc12 [Compound 1450, 2-(6-hydroxy-2,7-dimethyl-indazol-5-yl)-6-[(3R)-pyrrolidin-3-yl]-1,6-naphthyridin-5-one]",100 to 1000,100 to 1000,100 to 1000,> 10000,< 100,1000 to 10000,,,
Cc1cn2cc(-c3cc(F)c4c(=O)n([C@@H]5CNC[C@H]5F)ccc4c3)cc(F)c2n1 [Compound 1456],100 to 1000,100 to 1000,100 to 1000,> 10000,100 to 1000,> 10000,,,
"Cc1c(O)c(-c2ncc3c(=O)n([C@@H]4C[C@H]5CC[C@@H](C4)N5)ccc3n2)cc2cn(C)nc12 [Compound 1429, 6-[(1S,5R)-8-azabicyclo[3.2.1]octan-3-yl]-2-(6-hydroxy-2,7-dimethyl-indazol-5-yl)pyrido[4,3-d]pyrimidin-5-one]",< 100,< 100,< 100,1000 to 10000,< 100,100 to 1000,,,
"Cc1cn2cc(-c3ncc4c(=O)n([C@@H]5CCNC6(CC6)C5)ccc4n3)cc(F)c2n1 [Compound 1457, 6-[(7R)-4-azaspiro[2.5]octan-7-yl]-2-(8-fluoro-2-methyl-imidazo[1,2-a]pyridin-6-yl)pyrido[4,3-d]pyrimidin-5-one]",100 to 1000,100 to 1000,100 to 1000,1000 to 10000,< 100,1000 to 10000,,,
Cn1cc2ccc(-n3cnc4cc(NC5CCNCC5)ccc4c3=O)cc2n1 [Compound 204],,> 10000,> 10000,,,> 10000,> 10000,> 10000,> 10000
Cc1cn(C2CCNCC2)c(=O)c2ccc(-c3cc4cn(C)nc4c(F)c3O)nc12 [Compound 1285],< 100,< 100,< 100,< 100,< 100,< 100,,,
Cc1cn2nc(-c3ccc4c(c3F)CCN(C3CCNCC3)C4=O)cc(C)c2n1 [Compound 188],,100 to 1000,1000 to 10000,,,1000 to 10000,1000 to 10000,1000 to 10000,< 100
